Reference: ChEMBL document CHEMBL5712922, “Synergistic effects of type I PRMT and PARP inhibitors against non-small cell lung cancer cells” (Clin Epigenetics, 2021)

system: A549; assay: Antiproliferative against human A549 cells assessed as viable cells pretreated with MS023 for 24 hrs followed by compound addition at 10 uM measured after for 24 hrs relative to control; conditions: A549, 24 h, read-out: Activity

Question: How did the viability at 10 µM turn out when `Fc1cc(-c2cccc3ncc(-c4cnn(C5CCNCC5)c4)nc23)cc(F)c1CN1CCOCC1` was run?
Answer: The viability at 10 µM was 54.2%.

Question: With `Nc1nccc2c1ncn2[C@@H]1C=C(CO)[C@@H](O)[C@H]1O` as the compound, how does the viability at 10 µM read?
Answer: Its viability at 10 µM is 54.2%.

Question: `CCN(c1cc(C#CCN2CCOCC2)cc(C(=O)NCc2c(C)cc(C)[nH]c2=O)c1C)[C@H]1CC[C@H](N(C)CCOC)CC1` was tested. Which viability at 10 µM did it give?
Answer: The viability at 10 µM was 54.2%.

Question: How did the viability at 10 µM turn out when `COc1cc2c(cc1NS(=O)(=O)c1ccc(Br)cc1C)n(C)c(=O)n2C` was run?
Answer: Its viability at 10 µM is 54.2%.

Question: `CNS(=O)(=O)C[C@H]1CC[C@H](N(C)c2[nH]cnc3nccc2-3)CC1` [OCLACITINIB] was tested. Which viability at 10 µM did it give?
Answer: Its viability at 10 µM is 54.2%.

Question: How did the viability at 10 µM turn out when `COc1ccc(CCc2nc3cc(-c4c(C)noc4C)ccc3n2C[C@H](C)N2CCOCC2)cc1Cl` was run?
Answer: Its viability at 10 µM is 54.2%.

Question: How did the viability at 10 µM turn out when `N#Cc1ccc(-c2csc(NN=C3CCCC3)n2)cc1` was run?
Answer: Its viability at 10 µM is 54.2%.

Question: Which viability at 10 µM does the source give for `Cn1c(/C=C/C(=O)NO)ccc1/C=C/C(=O)c1cccc(F)c1` here?
Answer: Its viability at 10 µM is 54.2%.

Question: Which viability at 10 µM does the source give for `N#CC[C@@H](C1CCCC1)n1cc(-c2ncnc3[nH]ccc23)cn1` here?
Answer: Its viability at 10 µM is 54.2%.

Question: Which viability at 10 µM does the source give for `COc1cc2c(cc1OCCCN1CCCC1)N=C(N)C21CCC1` here?
Answer: Its viability at 10 µM is 54.2%.

Question: With `COc1cc(OC)c2c(=O)[nH]c(-c3cc(C)c(OCCO)c(C)c3)nc2c1` [APABETALONE] as the compound, how does the viability at 10 µM read?
Answer: Its viability at 10 µM is 54.2%.

Question: With `Cc1[nH]c2ccccc2c1CCNCc1ccc(/C=C/C(=O)NO)cc1` [PANOBINOSTAT] as the compound, how does the viability at 10 µM read?
Answer: Its viability at 10 µM is 54.2%.

Question: How did the viability at 10 µM turn out when `CO[C@@H](C(=O)N1Cc2[nH]nc(NC(=O)c3ccc(N4CCN(C)CC4)cc3)c2C1)c1ccccc1` [DANUSERTIB] was run?
Answer: Its viability at 10 µM is 54.2%.

Question: For `Cc1cnc(Nc2ccc(N3CCN(C)CC3)cc2)nc1Nc1cccc(S(=O)(=O)NC(C)(C)C)c1`, which viability at 10 µM is on record?
Answer: Its viability at 10 µM is 54.2%.

Question: With `Cc1nc(N)sc1-c1ccnc(Nc2ccc(N3CCOCC3)cc2)n1` [CYC-116] as the compound, how does the viability at 10 µM read?
Answer: The viability at 10 µM was 54.2%.

Question: For `COc1cc(C)[nH]c(=O)c1CNC(=O)c1c(C)n([C@H](C)C2CCOCC2)c2ccccc12`, which viability at 10 µM is on record?
Answer: Its viability at 10 µM is 54.2%.

Question: `Cc1cn([C@H]2O[C@@H](CO)[C@H](O)[C@H]2F)c(=O)[nH]c1=O` [CLEVUDINE] was tested. Which viability at 10 µM did it give?
Answer: The viability at 10 µM was 54.2%.

Question: `C1=N/C2=N/c3ccc(OCCN4CCCC4)c(c3)COC/C=C/COCc3cccc(c3)C(=C1)N2` [PACRITINIB] was tested. Which viability at 10 µM did it give?
Answer: The viability at 10 µM was 54.2%.

Question: `Oc1ccc(/C=C/c2cc(O)cc(O)c2)cc1` [RESVERATROL] was tested. Which viability at 10 µM did it give?
Answer: Its viability at 10 µM is 54.2%.

Question: How did the viability at 10 µM turn out when `Cc1cc(Nc2nc(N[C@@H](C)c3ccc(F)cc3)c(C#N)cc2F)n[nH]1` was run?
Answer: The viability at 10 µM was 54.2%.

Question: `CN1CCCN(C(=O)c2cccc(-c3ccc(/C=C4/C(=O)Nc5ccc(Cl)cc54)o3)c2)CC1` was tested. Which viability at 10 µM did it give?
Answer: Its viability at 10 µM is 54.2%.

Question: Which viability at 10 µM does the source give for `O=C(O)[C@]1(Cc2cccc(Nc3nccs3)n2)CC[C@@H](Oc2cccc(Cl)c2F)CC1` [MK-5108] here?
Answer: The viability at 10 µM was 54.2%.

Question: Which viability at 10 µM does the source give for `O=C(O)CCCc1ccccc1` [SODIUM PHENYLBUTYRATE] here?
Answer: The viability at 10 µM was 54.2%.

Question: How did the viability at 10 µM turn out when `Cc1sc2c(c1C)C(c1ccc(Cl)cc1)=N[C@@H](CC(N)=O)c1nnc(C)n1-2` was run?
Answer: Its viability at 10 µM is 54.2%.

Question: Which viability at 10 µM does the source give for `CCC(CC)n1ccc2c(C(=O)NCc3c(C)cc(C)[nH]c3=O)cc(C#N)cc21` here?
Answer: The viability at 10 µM was 54.2%.

Question: With `COc1ccc(Cn2ccc3ccc(C(=O)NO)cc32)cc1` as the compound, how does the viability at 10 µM read?
Answer: Its viability at 10 µM is 54.2%.

Question: How did the viability at 10 µM turn out when `COc1ccc(-c2nc(N3CCOCC3)c3sc(CN(C)c4ncc(C(=O)NO)cn4)cc3n2)cn1` [FIMEPINOSTAT] was run?
Answer: The viability at 10 µM was 54.2%.

Question: Which viability at 10 µM does the source give for `CC(C)N(CCC(=O)c1ccc2ccccc2c1)Cc1ccccc1` here?
Answer: Its viability at 10 µM is 54.2%.

Question: How did the viability at 10 µM turn out when `Cc1csc(-c2nnc(Nc3ccc(Oc4ncccc4-c4ccnc(N)n4)cc3)c3ccccc23)c1` [AMG-900] was run?
Answer: The viability at 10 µM was 54.2%.

Question: Which viability at 10 µM does the source give for `O=C(Nc1ccc(-c2ccnc(Nc3ccc(N4CCOCC4)cc3)n2)cc1)[C@@H]1CCCN1` here?
Answer: The viability at 10 µM was 54.2%.

Question: Which viability at 10 µM does the source give for `Nc1cc(F)ccc1NC(=O)/C=C/c1cnn(C/C=C/c2ccccc2)c1` here?
Answer: The viability at 10 µM was 54.2%.

Question: With `Cn1cc(-c2ccc(S(=O)(=O)n3ccc(/C=C/C(=O)Nc4ccccc4N)c3)cc2)cn1` [DOMATINOSTAT] as the compound, how does the viability at 10 µM read?
Answer: The viability at 10 µM was 54.2%.

Question: Which viability at 10 µM does the source give for `Cc1cc(/N=N/c2ccc(S(=O)(=O)Nc3ccccn3)cc2)c(N)cc1O` here?
Answer: Its viability at 10 µM is 54.2%.

Question: How did the viability at 10 µM turn out when `C[C@H](NC(=O)/C(C#N)=C/c1cccc(Br)n1)c1ccccc1` [WP 1066] was run?
Answer: Its viability at 10 µM is 54.2%.

Question: `N#C/C(=C\c1ccc(O)c(O)c1)C(=O)NCc1ccccc1` was tested. Which viability at 10 µM did it give?
Answer: The viability at 10 µM was 54.2%.

Question: With `CN(C)CCCNC(=O)c1ccc(-c2cc(O)c3ncccc3c2)cc1` as the compound, how does the viability at 10 µM read?
Answer: Its viability at 10 µM is 54.2%.

Question: For `O=C(CCCCCCNC(=O)c1cnc(N(c2ccccc2)c2ccccc2)nc1)NO` [RICOLINOSTAT], which viability at 10 µM is on record?
Answer: The viability at 10 µM was 54.2%.

Question: For `NC1=NC(=O)/C(=C\c2ccc(O)cc2)S1`, which viability at 10 µM is on record?
Answer: Its viability at 10 µM is 54.2%.

Question: `CCS(=O)(=O)N1CC(CC#N)(n2cc(-c3ncnc4[nH]ccc34)cn2)C1` [BARICITINIB] was tested. Which viability at 10 µM did it give?
Answer: The viability at 10 µM was 54.2%.

Question: How did the viability at 10 µM turn out when `CCCCCCCc1ccc(CCc2cccc(O)c2C(=O)O)cc1` was run?
Answer: Its viability at 10 µM is 54.2%.

Question: Which viability at 10 µM does the source give for `CCc1cccc(CC)c1NC(=O)N1Cc2[nH]nc(NC(=O)c3ccc(N4CCN(C)CC4)cc3)c2C1` [PHA-680632] here?
Answer: Its viability at 10 µM is 54.2%.

Question: For `CCN1CCN(C(=O)Cc2ccc(Nc3ncc(F)c(Nc4ccc(C(=O)Nc5ccccc5Cl)cc4)n3)cc2)CC1`, which viability at 10 µM is on record?
Answer: The viability at 10 µM was 54.2%.

Question: Which viability at 10 µM does the source give for `O=c1ccc2ccc(O)c(O)c2o1` [DAPHNETIN] here?
Answer: The viability at 10 µM was 54.2%.

Question: Which viability at 10 µM does the source give for `CCOC(=O)Nc1cc(-c2ccc(C)c(NS(C)(=O)=O)c2)nn2c(C)nnc12` here?
Answer: The viability at 10 µM was 54.2%.

Question: `C[C@@H]1CCN(C(=O)CC#N)C[C@@H]1N(C)c1ncnc2[nH]ccc12` [TOFACITINIB] was tested. Which viability at 10 µM did it give?
Answer: The viability at 10 µM was 54.2%.

Question: For `CC1=NN(c2ccc(C(=O)O)cc2)C(=O)/C1=C/c1ccc(-c2cc(C)c(C)cc2[N+](=O)[O-])o1`, which viability at 10 µM is on record?
Answer: The viability at 10 µM was 54.2%.

Question: With `CCn1cc(C(=O)O)c(=O)c2cc(F)c(N3CCNCC3)cc21` [NORFLOXACIN] as the compound, how does the viability at 10 µM read?
Answer: The viability at 10 µM was 54.2%.

Question: Which viability at 10 µM does the source give for `O=C(NCC1(c2nc(-c3ccccc3)cs2)CCOCC1)c1cccc(-c2noc(C(F)(F)F)n2)c1` here?
Answer: Its viability at 10 µM is 54.2%.

Question: How did the viability at 10 µM turn out when `CC(C)N(CCCNC(=O)Nc1ccc(C(C)(C)C)cc1)C[C@H]1O[C@@H](n2ccc3c(N)ncnc32)[C@H](O)[C@@H]1O` was run?
Answer: Its viability at 10 µM is 54.2%.

Question: With `CCS(=O)(=O)N1CCC([C@@H](C)n2c(C)c(C(=O)NCc3c(OC)cc(C)[nH]c3=O)c3ccccc32)CC1` as the compound, how does the viability at 10 µM read?
Answer: Its viability at 10 µM is 54.2%.

Question: How did the viability at 10 µM turn out when `O=C(CCCCCCC(=O)Nc1ccccc1)NO` [VORINOSTAT] was run?
Answer: Its viability at 10 µM is 54.2%.

Question: Which viability at 10 µM does the source give for `O=c1ncccn1[C@@H]1O[C@H](CO)[C@@H](O)[C@H]1O` [ZEBULARINE] here?
Answer: The viability at 10 µM was 54.2%.

Question: How did the viability at 10 µM turn out when `CCCc1cc2c(N3CCN(C4=NCC(C)(C)S4)CC3)ncnc2s1` was run?
Answer: The viability at 10 µM was 54.2%.

Question: `CCOC(=O)CCNc1cc(N2CCc3ccccc3CC2)nc(-c2ccccn2)n1` was tested. Which viability at 10 µM did it give?
Answer: Its viability at 10 µM is 54.2%.

Question: Which viability at 10 µM does the source give for `CO[C@@]12[C@H](COC(N)=O)C3=C(C(=O)C(C)=C(N)C3=O)N1C[C@@H]1N[C@@H]12` [MITOMYCIN] here?
Answer: Its viability at 10 µM is 54.2%.

Question: `C/C(=N\NC(=O)c1cccc(S(=O)(=O)N2CCOCC2)c1)c1cc(Cl)ccc1O` was tested. Which viability at 10 µM did it give?
Answer: The viability at 10 µM was 54.2%.

Question: With `O=C(O)CNC(=O)c1c(O)c2ccccc2n(Cc2ccccc2)c1=O` as the compound, how does the viability at 10 µM read?
Answer: Its viability at 10 µM is 54.2%.

Question: `CCCOc1ccn2c(C(C)=O)cc(-c3ccccc3S(C)(=O)=O)c2c1` was tested. Which viability at 10 µM did it give?
Answer: Its viability at 10 µM is 54.2%.

Question: With `CN(C)Cc1ccc(S(=O)(=O)n2ccc(/C=C/C(=O)NO)c2)cc1` [RESMINOSTAT] as the compound, how does the viability at 10 µM read?
Answer: The viability at 10 µM was 54.2%.

Question: For `CCn1cc(-c2ccnc3[nH]c(-c4cccc(CN(C)C)c4)cc23)c(-c2ccc(NC(=O)N(C)C)cc2)n1` [GSK-1070916], which viability at 10 µM is on record?
Answer: Its viability at 10 µM is 54.2%.

Question: `O=C(Nc1c[nH]nc1-c1nc2ccc(CN3CCOCC3)cc2[nH]1)NC1CC1` [AT-9283] was tested. Which viability at 10 µM did it give?
Answer: The viability at 10 µM was 54.2%.

Question: How did the viability at 10 µM turn out when `CCS(=O)(=O)c1cccc(-c2cc(C(=O)NC3CCN(C)CC3)c(C)c3[nH]c4ncc(C)cc4c23)c1` [TAK-901] was run?
Answer: The viability at 10 µM was 54.2%.

Question: `Nc1nc(Nc2ccc(S(N)(=O)=O)cc2)nn1C(=O)c1c(F)cccc1F` [JNJ-7706621] was tested. Which viability at 10 µM did it give?
Answer: Its viability at 10 µM is 54.2%.

Question: `Nc1ncn([C@@H]2O[C@H](CO)[C@@H](O)[C@H]2O)c(=O)n1` [AZACITIDINE] was tested. Which viability at 10 µM did it give?
Answer: The viability at 10 µM was 54.2%.
